Reference: a melting point compilation (Tetko et al.; mined from patent text by program, amines drawn as free bases though some values may be those of a salt)

SMILES | melting point [°C]
CCCCCCCCCCCC(=O)N[C@H](CC(=O)c1ccc(C)cc1)C(=O)OCC | 60 to 60.5
Cc1nc2ccccc2c(N)c1C(C)O (centres undefined) | 214
COc1c(C)c(C)c(OC)c(CN2C(=O)C3CCCC3=Nc3ccccc32)c1C (centres undefined) | 202 to 204
COc1ccc(-c2nnn(-c3ccc(C(F)(F)F)cc3F)c2Cl)c(Cl)c1 | 95.8 to 97.5
Cc1ccccc1OC(Cc1ccc(OCCN(C)c2nc3ccccc3o2)cc1)C(=O)O (centres undefined) | 142 to 143
FC(F)(F)C(c1ccc(Cl)cc1Cl)c1ccc(Cl)cc1Cl | 84 to 86
[O-][N+]1=C(c2ccccc2F)c2cc(Cl)ccc2N=C(C2CCCN2C=NO)C1 (centres undefined) | 168 to 172
CCN(CC)CCOc1ccc2[nH]c3c([N+](=O)[O-])ccc(Cl)c3c(=O)c2c1 | 148 to 151
CON1C(=O)CC2(CCN(C(=O)OCCBr)CC2)C1=O | 134
C=CCOc1ccc2c(=O)c(C)c(-c3ccccc3)oc2c1C(=O)C=Cc1cc(OC)c(OC)c(OC)c1 | 121 to 123
O=C(C=Cc1ccc(F)cc1)N1CCOCC1 | 136 to 137
Cc1ccc(S(=O)(=O)N2[C@@H](CCC(N)=O)CC[C@H]2c2ccc(F)cc2)cc1 (racemic) | 136
C[C@@H]1N(C(=O)OC(C)(C)C)CC[C@]1(C)O | 109 to 112
COC(=O)C1=C(O)c2sc3ccccc3c2S(=O)(=O)N1 | 240 to 242
NC(=O)C(Nc1ccc2ccccc2c1)c1c(Cl)cccc1Cl (centres undefined) | 158
Fc1ccc(C(CCCN2CCC(c3n[nH]c4ccccc34)CC2)c2ccc(F)cc2)cc1 | 154 to 156
O=Cc1cc(F)c(O)c(F)c1O | 141 to 143
CCCN[C@H]1CC[C@H](Oc2ccc3[nH]ncc3c2SC)CC1 | 168 to 169
CC(C)(C)c1cn(N=Cc2cccnc2)c(=O)[nH]1 | 255 to 256
COC(=O)C[C@@H]1C(=O)NC[C@H](Cc2cc(F)ccc2OC)C(=O)N1S(=O)(=O)c1ccc(Cl)cc1 | 73 to 76

SMILES | melting point [°C]
CCCCOC(=O)n1ccc(NC(=O)Nc2cccc3c2C2CCCCN2C3=O)n1 (centres undefined) | 136
Cn1cc(C2=C(c3cn(CCCS)c4ccccc34)C(=O)NC2=O)c2ccccc21 | 155 to 157
CC(=O)OC1CCC2(C)C(CCC3C4CC5OC6(CC(C)C(C)(C)O6)C(C)(O)C5C4(C)CC(O)C32)C1 (centres undefined) | 194 to 195
CC(C)c1cc(N)c(S(N)(=O)=O)cc1S(N)(=O)=O | 185 to 186
CC(=O)NCC1CN(c2ccc(N3CCC(O)C(C)(C)C3)c(F)c2)C(=O)O1 (centres undefined) | 70 to 72
CC(O)CN1CCNC1=S (centres undefined) | 101 to 102
CCOC(=O)CNC(=O)n1nc(Oc2c(Cl)cc(C(F)(F)F)cc2Cl)cc1C | 50 to 53
COc1ccc(C=CCN2CCc3nc(N)sc3CC2)cc1OC | 122 to 126
Cc1nc(N2CCN(CCc3c[nH]c4ccccc34)C2=O)sc1C(=O)NCc1ccccc1 | 215 to 217
COc1cc(C)nc(NC(=O)NS(=O)(=O)c2ccccc2C2CC2(Cl)Cl)n1 (centres undefined) | 187 to 191
Cc1cc(C(=O)Cl)ccc1[N+](=O)[O-] | 29 to 30
C[Si](C)(C)C#CCCCn1ncc(C#N)c1N | 125 to 127
CCn1ncc2c(NCc3ccc(OC)c(OC)c3)c3ccccc3nc21 | 169 to 171
COc1ccc(Nc2nc(-c3ccccc3)cc(N3CCC(OC(=O)CCC(=O)O)CC3)n2)cc1Cl | 218 to 220
O=c1ccn(CCOCc2ccccc2)c(C(O)c2ccccc2)c1OCc1ccccc1 (centres undefined) | 154 to 155
CCCCCCCCCCCCCOc1ccc(C(C)=O)o1 | 61 to 62
CC(CC1c2ccccc2CCN1C)NCC(O)c1ccc(O)cc1 (centres undefined) | 113 to 115
CCOC(=O)C1=C(C)NC(C)=C(C(=O)OC(C)C)C1c1cccc2ccccc12 (centres undefined) | 167
Cc1ccc2nc(C3(c4ccc(S(N)(=O)=O)cc4)C=C(C(F)(F)F)NN3)oc2c1 (centres undefined) | 260 to 261
